Assay: Pharmacokinetic study in rats: plasma 2C-B after IV/PO 2C-B or PO 2C-B prodrugs
[1] = prodrug oral 10 mg/kg, male SD rats, time 0.500 h, individual animals
[2] = prodrug oral 10 mg/kg, male SD rats, time 0.500 h, mean
[3] = prodrug oral 10 mg/kg, male SD rats, time 1.00 h, individual animals
[4] = prodrug oral 10 mg/kg, male SD rats, time 1.00 h, mean
[5] = prodrug oral 10 mg/kg, male SD rats, time 2.00 h, individual animals
[6] = prodrug oral 10 mg/kg, male SD rats, time 2.00 h, mean
[7] = prodrug oral 10 mg/kg, male SD rats, time 4.00 h, individual animals
[8] = prodrug oral 10 mg/kg, male SD rats, time 4.00 h, mean
[9] = prodrug oral 10 mg/kg, male SD rats, time 7.00 h, individual animals
[10] = prodrug oral 10 mg/kg, male SD rats, time 7.00 h, mean
[11] = prodrug oral 10 mg/kg, male SD rats, time 24.0 h, individual animals
[12] = prodrug oral 10 mg/kg, male SD rats, time 24.0 h, mean
[13] = oral dosing of 2C-B prodrug, rat, time 0.500 h, individual animal
[14] = oral dosing of 2C-B prodrug, rat, time 0.500 h, mean
[15] = oral dosing of 2C-B prodrug, rat, time 1.00 h, individual animal
[16] = oral dosing of 2C-B prodrug, rat, time 1.00 h, mean
[17] = oral dosing of 2C-B prodrug, rat, time 2.00 h, individual animal
[18] = oral dosing of 2C-B prodrug, rat, time 2.00 h, mean
[19] = oral dosing of 2C-B prodrug, rat, time 4.00 h, individual animal
[20] = oral dosing of 2C-B prodrug, rat, time 4.00 h, mean
[21] = oral dosing of 2C-B prodrug, rat, time 7.00 h, individual animal
[22] = oral dosing of 2C-B prodrug, rat, time 7.00 h, mean
[23] = oral dosing of 2C-B prodrug, rat, time 24.0 h, individual animal
[24] = oral dosing of 2C-B prodrug, rat, time 24.0 h, mean

Structure (SMILES) | Plasma Concentrations of metabolite 2C-B Following Oral Dosing [1] | Plasma Concentrations of metabolite 2C-B Following Oral Dosing [2] | Plasma Concentrations of metabolite 2C-B Following Oral Dosing [3] | Plasma Concentrations of metabolite 2C-B Following Oral Dosing [4] | Plasma Concentrations of metabolite 2C-B Following Oral Dosing [5] | Plasma Concentrations of metabolite 2C-B Following Oral Dosing [6] | Plasma Concentrations of metabolite 2C-B Following Oral Dosing [7] | Plasma Concentrations of metabolite 2C-B Following Oral Dosing [8] | Plasma Concentrations of metabolite 2C-B Following Oral Dosing [9] | Plasma Concentrations of metabolite 2C-B Following Oral Dosing [10] | Plasma Concentrations of metabolite 2C-B Following Oral Dosing [11] | Plasma Concentrations of metabolite 2C-B Following Oral Dosing [12] | Plasma Concentrations of metabolite 2C-B Following Oral Dosing [13] | Plasma Concentrations of metabolite 2C-B Following Oral Dosing [14] | Plasma Concentrations of metabolite 2C-B Following Oral Dosing [15] | Plasma Concentrations of metabolite 2C-B Following Oral Dosing [16] | Plasma Concentrations of metabolite 2C-B Following Oral Dosing [17] | Plasma Concentrations of metabolite 2C-B Following Oral Dosing [18] | Plasma Concentrations of metabolite 2C-B Following Oral Dosing [19] | Plasma Concentrations of metabolite 2C-B Following Oral Dosing [20] | further results
COc1cc(CCN(C(=O)OC(C)(C)C)C(=O)OC(C)(C)C)c(OC)cc1Br [Example 12, tert-butyl (4-bromo-2,5-dimethoxyphenethyl)(tert-butoxycarbonyl) carbamate] | BLQ (BLQ: Below Lower Limit of Quanification (0.5 ng/mL)) | BLQ (BLQ: Below Lower Limit of Quanification (0.5 ng/mL)) | BLQ (BLQ: Below Lower Limit of Quanification (0.5 ng/mL)) | BLQ (BLQ: Below Lower Limit of Quanification (0.5 ng/mL)) | BLQ (BLQ: Below Lower Limit of Quanification (0.5 ng/mL)) | BLQ (BLQ: Below Lower Limit of Quanification (0.5 ng/mL)) | BLQ (BLQ: Below Lower Limit of Quanification (0.5 ng/mL)) | BLQ (BLQ: Below Lower Limit of Quanification (0.5 ng/mL)) | BLQ (BLQ: Below Lower Limit of Quanification (0.5 ng/mL)) | BLQ (BLQ: Below Lower Limit of Quanification (0.5 ng/mL)) | BLQ (BLQ: Below Lower Limit of Quanification (0.5 ng/mL)) | BLQ (BLQ: Below Lower Limit of Quanification (0.5 ng/mL)) |  |  |  |  |  |  |  |  | 
COc1cc(CCN2C(=O)C(C)=C(C)C2=O)c(OC)cc1Br [Example 21-B, 1-(4-bromo-2,5-dimethoxyphenethyl)-3,4-dim ethyl-1H-pyrrole-2,5-dione] | BLQ (BLQ: Below Lower Limit of Quanification (0.5 ng/mL)) | BLQ (BLQ: Below Lower Limit of Quanification (0.5 ng/mL)) | BLQ (BLQ: Below Lower Limit of Quanification (0.5 ng/mL)) | BLQ (BLQ: Below Lower Limit of Quanification (0.5 ng/mL)) | BLQ (BLQ: Below Lower Limit of Quanification (0.5 ng/mL)) | BLQ (BLQ: Below Lower Limit of Quanification (0.5 ng/mL)) | BLQ (BLQ: Below Lower Limit of Quanification (0.5 ng/mL)) | BLQ (BLQ: Below Lower Limit of Quanification (0.5 ng/mL)) | BLQ (BLQ: Below Lower Limit of Quanification (0.5 ng/mL)) | BLQ (BLQ: Below Lower Limit of Quanification (0.5 ng/mL)) | BLQ (BLQ: Below Lower Limit of Quanification (0.5 ng/mL)) | BLQ (BLQ: Below Lower Limit of Quanification (0.5 ng/mL)) |  |  |  |  |  |  |  |  | 
COc1cc(CCN2C(=O)c3c(C)ccc(C)c3C2=O)c(OC)cc1Br [Example 34, 2-(4-bromo-2,5-dimethoxyphenethyl)-4,7-dimethylisoindoline-1,3-dione] |  |  |  |  |  |  |  |  |  |  |  |  | BLQ (BLQ: Below Lower Limit of Quanification (0.5 ng/mL)) | BLQ (BLQ: Below Lower Limit of Quanification (0.5 ng/mL)) | BLQ (BLQ: Below Lower Limit of Quanification (0.5 ng/mL)) | BLQ (BLQ: Below Lower Limit of Quanification (0.5 ng/mL)) | BLQ (BLQ: Below Lower Limit of Quanification (0.5 ng/mL)) | BLQ (BLQ: Below Lower Limit of Quanification (0.5 ng/mL)) | BLQ (BLQ: Below Lower Limit of Quanification (0.5 ng/mL)) | BLQ (BLQ: Below Lower Limit of Quanification (0.5 ng/mL)) | Plasma Concentrations of metabolite 2C-B Following Oral Dosing [21]: BLQ (BLQ: Below Lower Limit of Quanification (0.5 ng/mL)); Plasma Concentrations of metabolite 2C-B Following Oral Dosing [22]: BLQ (BLQ: Below Lower Limit of Quanification (0.5 ng/mL)); Plasma Concentrations of metabolite 2C-B Following Oral Dosing [23]: BLQ (BLQ: Below Lower Limit of Quanification (0.5 ng/mL)); Plasma Concentrations of metabolite 2C-B Following Oral Dosing [24]: BLQ (BLQ: Below Lower Limit of Quanification (0.5 ng/mL))
CCOC(=O)C1=C(C(=O)NCCc2cc(OC)c(Br)cc2OC)CCC1 [Example 36, Ethyl 2-((4-bromo-2,5-dimethoxyphenethyl)carbamoyl)cyclopent-1-ene-1-carboxylate] |  |  |  |  |  |  |  |  |  |  |  |  | BLQ (BLQ: Below Lower Limit of Quanification (0.5 ng/mL)) | BLQ (BLQ: Below Lower Limit of Quanification (0.5 ng/mL)) | BLQ (BLQ: Below Lower Limit of Quanification (0.5 ng/mL)) | BLQ (BLQ: Below Lower Limit of Quanification (0.5 ng/mL)) | BLQ (BLQ: Below Lower Limit of Quanification (0.5 ng/mL)) | BLQ (BLQ: Below Lower Limit of Quanification (0.5 ng/mL)) | BLQ (BLQ: Below Lower Limit of Quanification (0.5 ng/mL)) | BLQ (BLQ: Below Lower Limit of Quanification (0.5 ng/mL)) | Plasma Concentrations of metabolite 2C-B Following Oral Dosing [21]: BLQ (BLQ: Below Lower Limit of Quanification (0.5 ng/mL)); Plasma Concentrations of metabolite 2C-B Following Oral Dosing [22]: BLQ (BLQ: Below Lower Limit of Quanification (0.5 ng/mL)); Plasma Concentrations of metabolite 2C-B Following Oral Dosing [23]: BLQ (BLQ: Below Lower Limit of Quanification (0.5 ng/mL)); Plasma Concentrations of metabolite 2C-B Following Oral Dosing [24]: BLQ (BLQ: Below Lower Limit of Quanification (0.5 ng/mL))
